The structures appear in SMILES notation. Bounds are passed on as bounds.

The subject of one data set is Blood. The data set is described as follows: Inhibition of LPS-stimulated TNFalpha release in human whole blood. Type of data set: functional, tissue-based.
Data set [1] deals with Disintegrin and metalloproteinase domain-containing protein 17 (Sus scrofa, UniProt O77636). Nature of the data set: Inhibition of pig TACE.
Data set [2] in a line: Permeability across human Caco-2 cell membrane. Type of data set: ADME, cell-based.
The next data set addresses Stromelysin-1 (Homo sapiens, UniProt P08254). The data set is described as follows: Inhibition of MMP3.
A further data set deals with T1, Matrilysin (Homo sapiens, UniProt P09237).
T1 sequence (P09237 whole entry): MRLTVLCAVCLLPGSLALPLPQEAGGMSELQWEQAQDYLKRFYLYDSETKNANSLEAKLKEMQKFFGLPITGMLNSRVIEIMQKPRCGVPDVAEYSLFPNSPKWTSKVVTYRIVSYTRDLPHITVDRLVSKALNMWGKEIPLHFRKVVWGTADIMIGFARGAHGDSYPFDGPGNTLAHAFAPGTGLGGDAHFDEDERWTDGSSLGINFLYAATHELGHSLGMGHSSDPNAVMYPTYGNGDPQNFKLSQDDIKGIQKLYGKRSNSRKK
The data set is described as follows: Inhibition of MMP7.

A further data set deals with Stromelysin-2 (Homo sapiens, UniProt P09238). The data set is described as follows: Inhibition of MMP10.
The target in data set [3] is Macrophage metalloelastase (Homo sapiens, UniProt P39900). The data set is described as follows: Inhibition of MMP12.
The nature of data set [4]: Fraction unbound in rat serum. Type of data set: ADME, cell-free.
The nature of data set [5]: Fraction unbound in dog serum. Type of data set: ADME, cell-free, Canis lupus familiaris.
The nature of data set [6]: Fraction unbound in human serum. It is filed as ADME, cell-free.
A further data set has as its target Cytochrome P450 3A4 (Homo sapiens, UniProt P08684). Nature of the data set: Inhibition of CYP3A4 at 20 uM. Type of data set: ADME.
In the next data set the test system is Mus musculus. Nature of the data set: Inhibition of LPS-induced TNFalpha production in po dosed mouse endotoxemia model. It is filed as functional.
The test system of another data set is Rattus norvegicus. The data set is described as follows: Inhibition of LPS-induced TNFalpha production in po dosed rat endotoxemia model. Type of data set: functional.
Data set [7] in a line: Half life in Sprague-Dawley rat at 2 mg/kg, iv. Type of data set: ADME, organism-based. Details: dose 2 mg/kg, route intravenous; call rule not given here. The note with it: in vivo.
Data set [8] in a line: Clearance in Sprague-Dawley rat at 2 mg/kg, iv. Type of data set: ADME, organism-based. Details: dose 2 mg/kg, route intravenous. The note with it: in vivo.
A short description of data set [9]: Volume of distribution at steady state in Sprague-Dawley rat at 2 mg/kg, iv. Type of data set: ADME, organism-based. Details: dose 2 mg/kg, route intravenous. The note with it: in vivo, read-out: Vdss.
Data set [10] can be described thus: AUC in Sprague-Dawley rat at 2 mg/kg, iv. It is filed as ADME, organism-based. Details: dose 2 mg/kg, route intravenous. The note with it: plasma.
Data set [11] is described as follows: AUC in Sprague-Dawley rat at 40 mg/kg, po. Type of data set: ADME, organism-based. Details: dose 40 mg/kg, route oral. The note with it: plasma.
Data set [12] in a line: Oral bioavailability in Sprague-Dawley rat at 40 mg/kg. It is filed as ADME, organism-based. The note with it: in vivo.
Data set [13] can be described thus: Tmax in Sprague-Dawley rat at 40 mg/kg, po. The note with it: in vivo. Details: dose 40 mg/kg, route oral. It is filed as ADME, organism-based.
Data set [14] is described as follows: Half life in Beagle dog at 2 mg/kg, iv. Type of data set: ADME, organism-based, Canis lupus familiaris. Details: dose 2 mg/kg, route intravenous. The note with it: in vivo.
Data set [15] can be described thus: Clearance in Beagle dog at 2 mg/kg, iv. It is filed as ADME, organism-based, Canis lupus familiaris. Details: dose 2 mg/kg, route intravenous. The note with it: in vivo.
A short description of data set [16]: Volume of distribution at steady state in Beagle dog at 2 mg/kg, iv. It is filed as ADME, organism-based, Canis lupus familiaris. Details: dose 2 mg/kg, route intravenous. The note with it: in vivo, read-out: Vdss.
Data set [17] is described as follows: AUC in Beagle dog at 2 mg/kg, iv. The note with it: plasma. Type of data set: ADME, organism-based, Canis lupus familiaris. Details: dose 2 mg/kg, route intravenous.
Data set [18] is described as follows: AUC in Beagle dog at 8 mg/kg, po. Type of data set: ADME, organism-based, Canis lupus familiaris. Details: dose 8 mg/kg, route oral. The conditions noted are these: plasma.
Data set [19] is described as follows: Oral bioavailability in Beagle dog at 8 mg/kg. The conditions noted are these: in vivo. It is filed as ADME, organism-based, Canis lupus familiaris.
Data set [20] can be described thus: Tmax in Beagle dog at 8 mg/kg, po. The note with it: in vivo. Type of data set: ADME, organism-based, Canis lupus familiaris. Details: dose 8 mg/kg, route oral.

Disintegrin and metalloproteinase domain-containing protein 17, sequence (O77636 whole entry, the tested form may be a part): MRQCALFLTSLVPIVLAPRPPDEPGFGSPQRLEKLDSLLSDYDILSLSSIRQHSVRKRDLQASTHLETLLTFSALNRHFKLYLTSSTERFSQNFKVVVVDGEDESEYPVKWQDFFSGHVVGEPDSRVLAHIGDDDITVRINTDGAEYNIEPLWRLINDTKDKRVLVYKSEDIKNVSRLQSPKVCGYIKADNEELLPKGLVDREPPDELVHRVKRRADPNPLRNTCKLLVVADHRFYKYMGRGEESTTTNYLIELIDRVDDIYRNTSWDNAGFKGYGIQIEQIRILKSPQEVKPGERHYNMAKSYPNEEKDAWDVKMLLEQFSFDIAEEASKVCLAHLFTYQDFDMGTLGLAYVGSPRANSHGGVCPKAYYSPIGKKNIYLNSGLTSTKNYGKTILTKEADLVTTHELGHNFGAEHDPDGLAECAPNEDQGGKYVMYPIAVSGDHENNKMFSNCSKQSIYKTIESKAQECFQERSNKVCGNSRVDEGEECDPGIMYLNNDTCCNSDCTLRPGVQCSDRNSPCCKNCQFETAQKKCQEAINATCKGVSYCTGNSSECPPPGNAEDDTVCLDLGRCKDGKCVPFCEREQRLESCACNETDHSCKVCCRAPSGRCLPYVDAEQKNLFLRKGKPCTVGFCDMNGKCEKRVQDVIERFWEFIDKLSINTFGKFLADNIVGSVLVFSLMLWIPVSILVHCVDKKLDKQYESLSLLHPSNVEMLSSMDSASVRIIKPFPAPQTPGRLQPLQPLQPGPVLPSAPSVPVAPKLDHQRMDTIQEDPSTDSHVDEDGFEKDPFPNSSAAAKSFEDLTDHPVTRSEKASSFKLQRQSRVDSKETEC
Stromelysin-1, sequence (P08254 whole entry): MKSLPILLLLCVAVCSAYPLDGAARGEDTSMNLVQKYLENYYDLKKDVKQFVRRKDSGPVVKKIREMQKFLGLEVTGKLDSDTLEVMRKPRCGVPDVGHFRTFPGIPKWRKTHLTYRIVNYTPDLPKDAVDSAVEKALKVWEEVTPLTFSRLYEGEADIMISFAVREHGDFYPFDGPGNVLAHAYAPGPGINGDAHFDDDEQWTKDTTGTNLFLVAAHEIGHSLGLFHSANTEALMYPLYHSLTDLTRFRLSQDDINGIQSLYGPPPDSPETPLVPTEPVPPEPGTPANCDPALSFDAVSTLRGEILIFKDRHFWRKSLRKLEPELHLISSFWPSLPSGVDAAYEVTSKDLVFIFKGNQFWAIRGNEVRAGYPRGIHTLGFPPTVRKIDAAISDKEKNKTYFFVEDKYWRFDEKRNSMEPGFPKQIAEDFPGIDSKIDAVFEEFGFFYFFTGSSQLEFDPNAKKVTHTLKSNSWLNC
Stromelysin-2, sequence (P09238 whole entry): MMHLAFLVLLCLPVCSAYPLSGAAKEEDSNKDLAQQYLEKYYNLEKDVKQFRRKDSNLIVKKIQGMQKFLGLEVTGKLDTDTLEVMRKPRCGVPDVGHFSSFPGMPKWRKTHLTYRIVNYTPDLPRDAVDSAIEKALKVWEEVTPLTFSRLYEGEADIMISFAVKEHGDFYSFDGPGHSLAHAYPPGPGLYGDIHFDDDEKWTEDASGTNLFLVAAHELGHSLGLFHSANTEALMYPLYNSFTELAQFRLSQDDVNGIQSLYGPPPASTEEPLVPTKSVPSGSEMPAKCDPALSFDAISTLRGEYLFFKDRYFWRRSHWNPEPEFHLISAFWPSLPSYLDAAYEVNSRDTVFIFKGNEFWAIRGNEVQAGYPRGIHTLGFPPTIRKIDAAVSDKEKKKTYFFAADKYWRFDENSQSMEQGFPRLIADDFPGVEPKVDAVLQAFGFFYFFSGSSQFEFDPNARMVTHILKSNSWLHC
Macrophage metalloelastase, sequence (P39900 whole entry): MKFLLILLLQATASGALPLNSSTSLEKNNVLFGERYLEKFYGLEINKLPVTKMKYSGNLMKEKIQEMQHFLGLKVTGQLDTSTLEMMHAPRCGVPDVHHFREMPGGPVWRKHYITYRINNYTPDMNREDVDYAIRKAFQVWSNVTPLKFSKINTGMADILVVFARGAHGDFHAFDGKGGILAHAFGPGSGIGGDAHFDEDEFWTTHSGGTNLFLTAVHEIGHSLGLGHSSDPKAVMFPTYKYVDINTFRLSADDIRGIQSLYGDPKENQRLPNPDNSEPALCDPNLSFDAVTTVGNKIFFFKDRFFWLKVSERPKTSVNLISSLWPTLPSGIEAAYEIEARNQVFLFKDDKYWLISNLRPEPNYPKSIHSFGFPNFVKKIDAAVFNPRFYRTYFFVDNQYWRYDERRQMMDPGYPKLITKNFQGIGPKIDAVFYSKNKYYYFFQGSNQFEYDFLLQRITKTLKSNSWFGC
Cytochrome P450 3A4, sequence (P08684 whole entry): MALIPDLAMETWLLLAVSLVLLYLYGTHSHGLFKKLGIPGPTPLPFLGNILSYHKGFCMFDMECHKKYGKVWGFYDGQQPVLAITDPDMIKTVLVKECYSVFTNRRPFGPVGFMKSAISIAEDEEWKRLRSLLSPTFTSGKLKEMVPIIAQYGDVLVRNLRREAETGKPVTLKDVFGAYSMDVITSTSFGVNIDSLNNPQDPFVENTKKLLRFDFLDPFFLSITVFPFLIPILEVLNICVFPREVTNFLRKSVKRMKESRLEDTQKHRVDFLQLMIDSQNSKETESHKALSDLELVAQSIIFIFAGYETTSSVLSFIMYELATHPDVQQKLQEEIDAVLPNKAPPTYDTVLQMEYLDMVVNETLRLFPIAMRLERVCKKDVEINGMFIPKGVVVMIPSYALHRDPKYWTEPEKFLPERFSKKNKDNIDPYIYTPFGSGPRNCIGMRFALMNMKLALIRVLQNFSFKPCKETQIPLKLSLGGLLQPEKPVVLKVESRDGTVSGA

In the data set on Blood, `Cc1cc(COc2ccc(NC(=O)[C@@H]3[C@@H](C(=O)NO)CCCN3C)cc2)c2ccccc2n1` registered an IC50 of 20 nM.
Regarding `Cc1cc(COc2ccc(C(=O)N[C@@H]3CN(C(C)(C)C)CC[C@@H]3C(=O)NO)cc2)c2ccccc2n1`, the values for the IC50 (in data set [1]; in the data set on Blood) were 2 nM and 44 nM, respectively. This molecule also came in with a Papp in [2] of 0.6 ×10⁻⁶ cm/s.
On to `Cc1cc(COc2ccc(C(=O)N[C@@H]3CN(CCN(C)C)CC[C@@H]3C(=O)NO)cc2)c2ccccc2n1`, for which the half-maximal inhibitory concentration (IC50) in data set [1] amounted to 2 nM; in the data set on Blood, 55 nM. In data set [2], this molecule came in with a Papp of 0.1 ×10⁻⁶ cm/s.
Turning to `Cc1cc(COc2ccc(C(=O)N[C@@H]3CCOC[C@@H]3C(=O)NO)cc2)c2ccccc2n1`, the IC50 is < 1 nM in data set [1] and 130 nM in the data set with Blood. The Ki was 0.15 nM in [1]; < 100 nM on Stromelysin-1; < 100 nM on Matrilysin; < 100 nM at Stromelysin-2; < 100 nM in data set [3]. In data set [2], this molecule came in with a Papp of 2.3 ×10⁻⁶ cm/s. Besides, the unbound share (fraction unbound) in data set [4] was found to be 0.038; in data set [5] it was 0.17; in data set [6], 0.075. For the same molecule, the Activity result at Cytochrome P450 3A4 is “Not Active”. The ED50 in the data set with Mus musculus amounted to 2.2 mg/kg; in the data set with Rattus norvegicus, 3 mg/kg. Moreover, the half-life in data set [7] is 84 min; in data set [14], 96 min. Further, the clearance in [8] was 11.7 mL/min/kg; in data set [15], 28.3 mL/min/kg. For the same molecule, the Vd in [9] is 0.4 L/kg; in [16], 1.6 L/kg. Moreover, the area under the curve (AUC) in data set [10] came to 5.7 µM·h; in [11], 65 µM·h; in data set [17], 2.7 µM·h; in [18], 11 µM·h. Further, the bioavailability amounted to 58% in data set [12] and 96% in data set [19]. For the same molecule, the time to peak (Tmax) in [13] stood at 24 min; in data set [20] it was 12 min.
`Cc1cc(COc2ccc(C(=O)N[C@@H]3COCC[C@@H]3C(=O)NO)cc2)c2ccccc2n1`: the IC50 in [1] is < 1 nM; in the data set with Blood, 290 nM. In data set [2], the Papp was 0.4 ×10⁻⁶ cm/s.
As for `Cc1cc(COc2ccc(C(=O)N[C@@H]3CCCC[C@H]3C(=O)NO)cc2)c2ccccc2n1`, the IC50 in [1] was 2 nM; in the data set with Blood it was > 3000 nM.
In the case of `Cc1cc(COc2ccc(C(=O)N[C@@H]3CCCC[C@@H]3C(=O)NO)cc2)c2ccccc2n1`, the IC50 in data set [1] came out at 2 nM; in the data set with Blood, 890 nM. Moreover, in data set [2], the Papp worked out at 3.4 ×10⁻⁶ cm/s.
On the same counts, the results for `Cc1cc(COc2ccc(C(=O)NC3CCC3C(=O)NO)cc2)c2ccccc2n1` (configuration not stated) are 1 nM, 2860 nM and 0.4 ×10⁻⁶ cm/s.
On the same counts, the results for `Cc1cc(COc2ccc(C(=O)N[C@@H]3CNCC[C@@H]3C(=O)NO)cc2)c2ccccc2n1` are 1 nM, 187 nM and 0.2 ×10⁻⁶ cm/s.
In the same order, the values of `Cc1cc(COc2ccc(C(=O)N[C@@H]3CCNC[C@@H]3C(=O)NO)cc2)c2ccccc2n1` are 24 nM, 620 nM and 0.2 ×10⁻⁶ cm/s.
In the case of `Cc1cc(COc2ccc(C(=O)N[C@@H]3CCCO[C@@H]3C(=O)NO)cc2)c2ccccc2n1`, the IC50 amounted to 3 nM in data set [1] and 4110 nM in the data set on Blood. The Papp in data set [2] is 0.06 ×10⁻⁶ cm/s.
For `Cc1cc(COc2ccc(C(=O)N[C@H]3CNCC[C@@H]3C(=O)NO)cc2)c2ccccc2n1`, the IC50 was < 1 nM in data set [1] and 393 nM with Blood.

Values taken from ChEMBL document CHEMBL1140787, “Discovery of beta-benzamido hydroxamic acids as potent, selective, and orally bioavailable TACE inhibitors” (Bioorg Med Chem Lett, 2008).
